IC50 data for 10 compounds are collected here from patent US20250282799A1, “SUBSTITUTED PYRIDO[4,3-d]PYRIMIDINES AS KRAS MODULATORS” (Alterome Therapeutics, Inc., priority 2023, published 2025).

For assay [1], the system named is KRAS G12V dependent lung adenocarcinoma cell line, NCI-H441. The experiment in a line: Cellular pERK (Thr202/Tyr204) FRET/HTRF assay. In kind it is cell-based. The following applies: Homo sapiens. In a few lines: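 IC50 reflects inhibition of ERK1/2 Thr202/Tyr204 phosphorylation, quantified by HTRF after a 1 hr treatment of KRAS G12V-driven NCI-H441 cells. DMSO served as negative control.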

The target of assay [2] is KRAS (G12D)/CRAF (Homo sapiens (Human), UniProt P01116, G12D). As to the kind of experiment: TR-FRET biochemical KRAS:CRAF protein:protein interaction assay, KRAS (G12D). In kind it is binding. The conditions noted are these: GMPPNP loaded Biotin-KRAS (G12D), FLAG CRAF RBD; read-out: TR-Fret_PPI KRAS (G12D)/CRAF IC50. As for the experimental part:
(§1) The effect of test compounds on KRAS and CRAF protein: protein interaction (PPI) was measured by time resolved fluorescence resonance energy transfer (TR-FRET) Ras binding domain (RBD) assay, which uses a signal generated through fluorescent resonance energy transfer between a donor and an acceptor molecule when in close proximity to each other. Interference from buffer, media, etc. is reduced by dual-wavelength detection; the energy pulse from the excitation source is followed by a time delay, which allows interfering short-lived fluorescence to decay (Degorce et al. 2009).
(§2) The KRAS: CRAF PPI assay can be utilized to identify KRAS ‘ON’ state inhibitors, as the KRAS protein is loaded with GMPPNP (a non-hydrolyzable GTP analog), which represents the active KRAS ‘ON’ state. FLAG-tagged CRAF RBD binding to the GMPPNP loaded biotin-tagged KRAS will result in a fluorescence energy transfer from the donor (Tb-anti-FLAG, emission 620 nm) to the acceptor (SA-XL665, emission 665 nm). Disruption of KRAS and CRAF binding will reduce the TR-FRET signal.
(§3) Test compound was dissolved in DMSO to create a 1 mM stock solution. A 45 μL volume of stock solution was transferred to a 384well polypropylene plate. A 3fold, 10point dilution was performed by transferring 15 μL of test compound solution into 30 μL of DMSO.
(§4) Assay buffer A was prepared with […] Hepes, pH7.3, 0.002% Tween 20, 0.1% BSA, […] NaCl, 5 mM MgCl2, and 10 uM GMP-PNP. 4× KRAS Solution was prepared with 80 nM of Biotin-KRAS (G12D/V), GMPPNP loaded or Biotin-KRAS (WT), GMPPNP loaded protein in assay buffer A. 4× Raf RBD Solution was prepared with 400 nM FLAG CRAF RBD in assay buffer A. 2× Detection Mixture was prepared with 2 nM Tb-anti-FLAG antibody and 10 nM and 10 nM SA-XL665 in assay buffer A.
(§5) A volume of 100 nL of 100× test compound working solution or DMSO vehicle control solution was dispensed to each well (duplicate for each concentration) of a 384-well ProxiPlate Plus assay plate. A volume of 2.5 μL of 4× KRAS Solution was added to each well of the assay plate for a final concentration of 20 nM Biotin-KRAS (G12D/V),GMPPNP loaded or 20 nM Biotin-KRAS (WT), GMPPNP. For low control, add 2.5 μL of assay buffer (no KRAS protein). Pre-incubate assay plate for 30 minutes at room temperature. Following pre-incubation of test compound or DMSO with Biotin-KRAS (G12D/V),GMPPNP loaded or Biotin-KRAS (WT),GMPPNP, a volume of 2.5 μL of 4× FLAG cRAF RBD Solution was added to each well of the assay plate for a final concentration of 100 nM FLAG CRAF RBD. The assay plate was subjected to centrifuge at 1000 rpm for 1 minute and pre-incubate assay plate for 150 minutes at room temperature. Following the pre-incubation with FLAG cRAF RBD, a volume of 5 μl of 2× Detection Mixture was added to each well of the assay plate for a final concentration of 1 nM Tb-anti-FLAG and 5 nM SA-XL665. The assay plate was centrifuged at 1000 rpm for 1 minute and incubated for 90 minutes at room temperature. TR-FRET signal was measured on a BioTek Synergy Neo2 microplate reader (excitation at 340 nm, emission at 665 nn and 620 nm).
(§6) TR-FRET ratios were calculated by dividing the acceptor emission value (665 nm) by the donor emission value (620 nm) for each sample.
(§7) Percent inhibition was calculated by multiplying the normalized TR-FRET ratio by 100, where TR-FRET ratio^HIGH was the TR-FRET ratio obtained from wells with 1% DMSO and complete reaction mixture, TR-FRET ratio^LOW was the ratio obtained from wells with 1% DMSO and reaction mixture without KRAS protein and TR-FRET ratio^SAMPLE was the TR-FRET ratio from wells with test compound and complete reaction mixture. The IC50 values were calculated from normalized TR-FRET ratios with the Levenberg-Marquardt 4 parameter fitting procedure.
(§8) This assay quantifies the interaction of a KRAS mutant protein (e.g., G12V) with the CRAF Ras-binding domain (RBD). […]
In general terms: Time-resolved FRET reads energy transfer from a long-lived donor to a nearby acceptor.

In assay [3] the target is KRAS (G12V)/CRAF (Homo sapiens (Human), UniProt P01116, G12V). The experiment in a line: TR-FRET biochemical KRAS:CRAF protein:protein interaction assay, KRAS (G12V). The conditions noted are these: GMPPNP loaded Biotin-KRAS (G12V), FLAG CRAF RBD; read-out: TR-Fret_PPI KRAS (G12V)/CRAF IC50. In kind it is binding. The procedure: as §1, §2, §3, §4, §5, §6, §7, §8
KRAS (G12V)/CRAF, sequence (P01116-2 other isoform, or with tags, fused parts or gaps G12V): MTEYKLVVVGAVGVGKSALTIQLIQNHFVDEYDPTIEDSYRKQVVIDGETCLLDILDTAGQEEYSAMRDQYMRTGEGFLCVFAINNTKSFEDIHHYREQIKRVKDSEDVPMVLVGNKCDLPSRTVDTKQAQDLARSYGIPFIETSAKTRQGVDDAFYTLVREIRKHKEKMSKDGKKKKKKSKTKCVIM
Where [4] appears, read: NCI-H441, pERK HTRF, NCI-H441 cells (KRAS G12V).
[5] abbreviates: NCI-H441, cellular pERK (Thr202/Tyr204) HTRF, NCI-H441 cells.

KRAS (G12D)/CRAF, sequence (P01116-2 other isoform, or with tags, fused parts or gaps G12D): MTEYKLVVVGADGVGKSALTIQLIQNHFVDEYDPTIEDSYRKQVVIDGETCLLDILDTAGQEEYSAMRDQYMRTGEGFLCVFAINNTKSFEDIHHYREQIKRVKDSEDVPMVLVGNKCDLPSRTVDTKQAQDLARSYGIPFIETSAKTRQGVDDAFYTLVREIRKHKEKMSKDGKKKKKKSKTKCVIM

Turning to `C#Cc1c(F)ccc2cc(N)cc(-c3ncc4c(N5CCCC[C@H]6C[C@H]65)nc(OC[C@@]56CCCN5C[C@H](F)C6)nc4c3F)c12` [Example 5, 4-(4-((1R,7S)-2-azabicyclo[5.1.0]octan-2-yl)-8-fluoro-2-(((2R,7aS)-2-fluorotetrahydro-1H-pyrrolizin-7a(5H)-yl)methoxy)pyrido[4,3-d]pyrimidin-7-yl)-5-ethynyl-6-fluoronaphthalen-2-amine], the IC50 was under 0.05 µM in assay [1] (setting [4]), 0.0242 µM in assay [2] and 0.234 µM in assay [3].
Consider `[2H]C([2H])(Oc1nc(N2CCCC[C@H]3C[C@H]32)c2cnc(-c3cc(N)cc4cc(F)c(F)c(C#C)c34)c(F)c2n1)[C@@]12CCCN1C[C@H](F)C2` [Example 8, 4-(4-((1R,7S)-2-azabicyclo[5.1.0]octan-2-yl)-8-fluoro-2-(((2R,7aS)-2-fluorotetrahydro-1H-pyrrolizin-7a(5H)-yl)methoxy-d2)pyrido[4,3-d]pyrimidin-7-yl)-5-ethynyl-6,7-difluoronaphthalen-2-amine], for which the IC50 in assay [1] (setting [4]) was under 0.05 µM; in assay [2], 0.0275 µM; in assay [3], 0.213 µM.
As to `[2H]C([2H])(Oc1nc(N2CCCC[C@H]3[C@@H](F)[C@H]32)c2cnc(-c3cc(N)cc4cc(F)c(F)c(C#C)c34)c(F)c2n1)[C@@]12CCCN1C[C@H](F)C2` [Example 13, 5-Ethynyl-6,7-difluoro-4-(8-fluoro-4-((1S,7R,8R)-8-fluoro-2-azabicyclo[5.1.0]octan-2-yl)-2-(((2R,7aS)-2-fluorotetrahydro-1H-pyrrolizin-7a(5H)-yl)methoxy-d2)pyrido[4,3-d]pyrimidin-7-yl)naphthalen-2-amine], the results for the IC50 in assay [1] (setting [4]), in assay [2] and in assay [3] were 0.05 to 0.5 µM, 0.43 µM and 2.83 µM, respectively.
The corresponding values for `[2H]C([2H])(Oc1nc(N2CCCC[C@@H]3[C@H](F)[C@@H]32)c2cnc(-c3cc(N)cc4cc(F)c(F)c(C#C)c34)c(F)c2n1)[C@@]12CCCN1C[C@H](F)C2` [Example 14, 5-Ethynyl-6,7-difluoro-4-(8-fluoro-4-((1R,7S,8S)-8-fluoro-2-azabicyclo[5.1.0]octan-2-yl)-2-(((2R,7aS)-2-fluorotetrahydro-1H-pyrrolizin-7a(5H)-yl)methoxy-d2)pyrido[4,3-d]pyrimidin-7-yl)naphthalen-2-amine] are 0.5 to 10 µM, at least 10 µM and at least 10 µM.
`[2H]C([2H])(Oc1nc(N2CCCC[C@@H]3[C@@H](F)[C@@H]32)c2cnc(-c3cc(N)cc4cc(F)c(F)c(C#C)c34)c(F)c2n1)[C@@]12CCCN1C[C@H](F)C2` [Example 15, 5-Ethynyl-6,7-difluoro-4-(8-fluoro-4-((1R,7S,8R)-8-fluoro-2-azabicyclo[5.1.0]octan-2-yl)-2-(((2R,7aS)-2-fluorotetrahydro-1H-pyrrolizin-7a(5H)-yl)methoxy-d2)pyrido[4,3-d]pyrimidin-7-yl)naphthalen-2-amine]: the figures for the IC50 in assay [1] (setting [4]), in assay [2] and in assay [3] were 0.5 to 10 µM, at least 10 µM and at least 10 µM, respectively.
On to `[2H]C([2H])(Oc1nc(N2CCOC[C@H]3C[C@H]32)c2cnc(-c3cc(N)cc4cc(F)c(F)c(C#C)c34)c(F)c2n1)[C@@]12CCCN1C[C@H](F)C2` [Example 62, 4-(4-((1R,7S)-5-oxa-2-azabicyclo[5.1.0]octan-2-yl)-8-fluoro-2-(((2R,7aS)-2-fluorotetrahydro-1H-pyrrolizin-7a(5H)-yl)methoxy-d2)pyrido[4,3-d]pyrimidin-7-yl)-5-ethynyl-6,7-difluoronaphthalen-2-amine], for which the IC50 in assay [1] (setting [4]) was 0.05 to 0.5 µM; in assay [2], 0.0626 µM; in assay [3], 0.443 µM.
As for `[2H]C([2H])(Oc1nc(N2CC=CC[C@H]3[C@H](F)[C@H]32)c2cnc(-c3cc(N)cc4cc(F)c(F)c(C#C)c34)c(F)c2n1)[C@@]12CCCN1C[C@H](F)C2` [Example 137, 5-Ethynyl-6,7-difluoro-4-(8-fluoro-4-((1S,7R,8S)-8-fluoro-2-azabicyclo[5.1.0]oct-4-en-2-yl)-2-(((2R,7aS)-2-fluorotetrahydro-1H-pyrrolizin-7a(5H)-yl)methoxy-d2)pyrido[4,3-d]pyrimidin-7-yl)naphthalen-2-amine], the IC50 is under 0.05 µM in assay [1] (setting [5]), 0.0274 µM in assay [2] and 0.155 µM in assay [3].
The like results for `[2H]C([2H])(Oc1nc(N2CC=CC[C@@H]3[C@@H](F)[C@@H]32)c2cnc(-c3cc(N)cc4cc(F)c(F)c(C#C)c34)c(F)c2n1)[C@@]12CCCN1C[C@H](F)C2` [Example 138, 5-ethynyl-6,7-difluoro-4-(8-fluoro-4-((1R,7S,8R)-8-fluoro-2-azabicyclo[5.1.0]oct-4-en-2-yl)-2-(((2R,7aS)-2-fluorotetrahydro-1H-pyrrolizin-7a(5H)-yl)methoxy-d2)pyrido[4,3-d]pyrimidin-7-yl)naphthalen-2-amine] were, in that order, 0.5 to 10 µM, at least 10 µM and at least 10 µM.
The corresponding values for `[2H]C([2H])(Oc1nc(N2CCOC[C@@H]3[C@@H](F)[C@@H]32)c2cnc(-c3cc(N)cc4ccc(F)c(C#C)c34)c(F)c2n1)[C@@]12CCCN1C[C@H](F)C2` [Example 221, 5-ethynyl-6-fluoro-4-(8-fluoro-4-((1R,7R,8R)-8-fluoro-5-oxa-2-azabicyclo[5.1.0]octan-2-yl)-2-(((2R,7aS)-2-fluorotetrahydro-1H-pyrrolizin-7a(5H)-yl)methoxy-d2)pyrido[4,3-d]pyrimidin-7-yl)naphthalen-2-amine] are 0.5 to 10 µM, over 3 µM and over 3 µM.
The corresponding values for `[2H]C([2H])(Oc1nc(N2CCOC[C@H]3[C@H](F)[C@H]32)c2c(OC)nc(-c3cc(N)cc4ccc(F)c(C#C)c34)c(F)c2n1)[C@@]12CCCN1C[C@H](F)C2` [Example 222, 5-Ethynyl-6-fluoro-4-(8-fluoro-4-((1S,7S,8S)-8-fluoro-5-oxa-2-azabicyclo[5.1.0]octan-2-yl)-2-(((2R,7aS)-2-fluorotetrahydro-1H-pyrrolizin-7a(5H)-yl)methoxy-d2)-5-methoxypyrido[4,3-d]pyrimidin-7-yl)naphthalen-2-amine] are under 0.05 µM, 0.0117 µM and 0.0537 µM.
